Assay results reported in patent publication US20240366571A1, “MODULATORS OF SK4 POTASSIUM CHANNEL AND USES THEREOF” (Ramot at Tel-Aviv University Ltd., priority 2022, published 2024).
“Also recorded” adds a separate entry of the source.

Molecular target: T1, human SK4 (Homo sapiens, UniProt O15554)
T1 construct: expressed in transfected cells; host or cells: CHO cells
Experiment: Whole-cell patch-clamp of WT SK4 K+ currents in transfected CHO cells
Format: cell-based
Details: for SK4 K+ channel modulating activity: WT SK4 currents in absence and presence of 20 μM compound
Experimental: Constructs: For CHO cell transfection, the following were cloned: human SK1, rat SK2, human SK3, and rat calmodulin into the pcDNA3 vector, human SK4 into pEGFP-C1 vector, and PIP4,5-kinase into an IRES-dsRed plasmid. The mutations were introduced using the PCR-based QuikChange™ site-directed mutagenesis (Stratagene®) and were verified by full sequencing of the entire plasmid vector.
Cell Culture and Transfection: Chinese hamster ovary (CHO) cells were grown in Dulbecco's modified Eagle's medium supplemented with 2 millimolar (mM) glutamine, 10% fetal calf serum, and antibiotics. In brief, 40,000 cells seeded on poly-L-lysine-coated glass coverslips (13 millimeter (mm) in diameter) in a 24-multiwell plate were transfected with 0.5 microgram (μg) pEGFP-SK4/0.5 μg mutant SK4, 1.2 μg dsRed-PIP4,5-kinase or with 1 μg SK1/SK2/SK3 together with pIRES-CD8 (0.3 μg) as a marker for transfection. Transfection was performed using TransIT-LT1 Transfection Reagent (Mirus Bio) according to the manufacturer's protocol. For electrophysiology, transfected cells were visualized approximately 40 hours after transfection with a Zeiss Axiovert 35 inverted florescence microscope.
Whole-cell patch-clamp recording: Voltage-clamp recordings were performed using the whole-cell configuration of the patch-clamp technique. Signals were amplified using an […] patch-clamp amplifier (Molecular Devices), sampled at 5 kHz and filtered at 2.4 kHz via a four pole Bessel low pass filter. Data were acquired using pClamp™ 10.5 software in conjunction with an Axon™ DigiData® 1440A interface (Molecular Devices). The patch pipettes were pulled from borosilicate glass (Harvard Apparatus) with a resistance of 3-5 megaohms (MΩ). The intracellular pipette solution contained 130 mM KCl, 5 mM EGTA, 10 mM HEPES, pH 7.3 (adjusted with KOH), and CaCl2 calculated for a final concentration of 1 μM free-Ca^2+, by MAXCHELATOR (WEBMAXC STANDARD) software, with sucrose added to adjust osmolarity to 290 mosM. The external solution (310 mosM) contained 140 mM NaCl, 4 mM KCl, 1.8 mM CaCl2, 1.2 mM MgCl2, 11 mM glucose, and 5.5 mM HEPES adjusted with NaOH to pH 7.3. CHO cells were held at −90 millivolt (mV) and SK4 K^+ currents were activated using a voltage ramp protocol from −100 mV to +60 mV for 150 milliseconds. Electrophysiological data analysis was performed using the Clampfit program (pClamp™ 10.5; Molecular Devices).
Some of the compounds were tested by comparing trace of WT SK4 channel currents in the absence and presence of 20 μM of the tested compound.

Question: For `CCCn1c(=O)n(CCC)c2cc(C)ccc21` [BA2OC3c, 5-methyl-1,3-dipropyl-1,3-dihydro-2H-benzo[d]imidazol-2-one], which “SK4 K+ channel modulating activity” value is on record?
Answer: Inactive

Question: With `CCCCCCn1c(=O)n(CCCCCC)c2cc(C)ccc21` [BA26, 1,3-dihexyl-5-methyl-1,3-dihydro-2H-benzo[d]imidazol-2-one] as the molecule, how does the “SK4 K+ channel modulating activity” value read?
Answer: Inactive

Question: How did the “SK4 K+ channel modulating activity” value turn out when `CCCCCCn1c(=O)n(CCCCCC)c2cc(Cl)c(Cl)cc21` [BA44, 5,6-dichloro-1,3-dihexyl-1,3-dihydro-2H-benzo[d]imidazol-2-one] was run?
Answer: Inactive

Question: `CCCCCn1c(=O)[nH]c2ccccc21` [BA4B, 1-pentyl-1,3-dihydro-2H-benzo[d]imidazol-2-one] was tested. Which “SK4 K+ channel modulating activity” value did it give?
Answer: inhibition; also recorded: Inhibitor

Question: `CCCCCCCCn1c(=O)[nH]c2ccccc21` [BA7B, 1-octyl-1,3-dihydro-2H-benzo[d]imidazol-2-one] was tested. Which “SK4 K+ channel modulating activity” value did it give?
Answer: Inactive

Question: With `CCCCCCn1c(=O)n(CCCCCC)c2ccccc21` [BA5A, 1,3-dihexyl-1,3-dihydro-2H-benzo[d]imidazol-2-one] as the molecule, how does the “SK4 K+ channel modulating activity” value read?
Answer: Inactive

Question: How did the “SK4 K+ channel modulating activity” value turn out when `Cc1cc2[nH]c(=O)[nH]c2cc1C` [BA50, 5,6-dimethyl-1,3-dihydro-2H-benzo[d]imidazol-2-one] was run?
Answer: Inactive

Question: How did the “SK4 K+ channel modulating activity” value turn out when `CCCCCn1c(=O)n(CCCCC)c2cc(Cl)c(Cl)cc21` [BA42, 5,6-dichloro-1,3-dipentyl-1,3-dihydro-2H-benzo[d]imidazol-2-one] was run?
Answer: Inactive

Question: `Cc1cccc2[nH]c(=O)[nH]c12` [BA30, 4-methyl-1,3-dihydro-2H-benzo[d]imidazol-2-one] was tested. Which “SK4 K+ channel modulating activity” value did it give?
Answer: Inactive

Question: `CCCCCCCn1c(=O)n(CCCCCCC)c2cc(Cl)c(Cl)cc21` [BA46, 5,6-dichloro-1,3-diheptyl-1,3-dihydro-2H-benzo[d]imidazol-2-one] was tested. Which “SK4 K+ channel modulating activity” value did it give?
Answer: Inactive

Question: With `CCCCCCCCCCn1c(=O)[nH]c2ccccc21` [BA8B, 1-decyl-1,3-dihydro-2H-benzo[d]imidazol-2-one] as the molecule, how does the “SK4 K+ channel modulating activity” value read?
Answer: Inactive

Question: With `CCCCCCCn1c(=O)n(CCCCCCC)c2ccccc21` [BA6A, 1,3-diheptyl-1,3-dihydro-2H-benzo[d]imidazol-2-one] as the molecule, how does the “SK4 K+ channel modulating activity” value read?
Answer: Inactive

Question: For `CCCCCn1c(=O)n(CCCCC)c2ccccc21` [BA4A, 1,3-dipentyl-1,3-dihydro-2H-benzo[d]imidazol-2-one], which “SK4 K+ channel modulating activity” value is on record?
Answer: Inactive

Question: With `CCCCCCn1c(=O)n(CCCCCC)c2cc(F)ccc21` [BA66, 5-fluoro-1,3-dihexyl-1,3-dihydro-2H-benzo[d]imidazol-2-one] as the molecule, how does the “SK4 K+ channel modulating activity” value read?
Answer: Inactive

Question: How did the “SK4 K+ channel modulating activity” value turn out when `Cn1c(=O)n(C)c2ccccc21` [BA2A, 1,3-dimethyl-1,3-dihydro-2H-benzo[d]imidazol-2-one] was run?
Answer: Inactive

Question: With `CCCCCCCn1c(=O)n(CCCCCCC)c2cc(F)ccc21` [BA69, 5-fluoro-1,3-diheptyl-1,3-dihydro-2H-benzo[d]imidazol-2-one] as the molecule, how does the “SK4 K+ channel modulating activity” value read?
Answer: Inactive

Question: Which “SK4 K+ channel modulating activity” value does the source give for `CCCn1c(=O)n(CCC)c2ccccc21` [BA3A, 1,3-dipropyl-1,3-dihydro-2H-benzo[d]imidazol-2-one] here?
Answer: Inactive

Question: `CCCCCCCCCCn1c(=O)n(CCCCCCCCCC)c2ccccc21` [BA8A, 1,3-didecyl-1,3-dihydro-2H-benzo[d]imidazol-2-one] was tested. Which “SK4 K+ channel modulating activity” value did it give?
Answer: Inactive

Question: Which “SK4 K+ channel modulating activity” value does the source give for `CCCn1c(=O)[nH]c2ccccc21` [BA3B, 1-propyl-1,3-dihydro-2H-benzo[d]imidazol-2-one] here?
Answer: Inactive

Question: How did the “inhibition of WT SK4 currents” value (20 μM, whole-cell) turn out when `CCCCCCCn1c(=O)[nH]c2ccccc21` [BA6B, 1-heptyl-1,3-dihydro-2H-benzo[d]imidazol-2-one] was run?
Answer: about 25%

Question: What about the inhibition at 20 µM (CHO, 20 μM, whole-cell) of the same molecule?
Answer: 25%

Question: What about the “SK4 K+ channel modulating activity” value of the same molecule?
Answer: inhibited; also recorded: inhibition; also recorded: Inhibitor

Question: And the IC50 (dose-dependent inhibition of WT SK4 channels, read-out: SK4 K+ channel modulating activity (IC50))?
Answer: 50 µM

Question: With `CCCCCCCCCCCCn1c(=O)n(CCCCCCCCCCCC)c2ccccc21` [BA9A, 1,3-didodecyl-1,3-dihydro-2H-benzo[d]imidazol-2-one] as the molecule, how does the “SK4 K+ channel modulating activity” value read?
Answer: Inactive

Question: `CCCCCn1c(=O)n(CCCCC)c2cc(C)ccc21` [BA23, 5-methyl-1,3-dipentyl-1,3-dihydro-2H-benzo[d]imidazol-2-one] was tested. Which “SK4 K+ channel modulating activity” value did it give?
Answer: Inactive

Question: `CCCCCCn1c(=O)n(CCCCCC)c2cc(C)c(C)cc21` [BA54, 1,3-dihexyl-5,6-dimethyl-1,3-dihydro-2H-benzo[d]imidazol-2-one] was tested. Which “SK4 K+ channel modulating activity” value did it give?
Answer: Inactive

Question: For `CCCCCCCCn1c(=O)n(CCCCCCCC)c2ccccc21` [BA7A, 1,3-dioctyl-1,3-dihydro-2H-benzo[d]imidazol-2-one], which “SK4 K+ channel modulating activity” value is on record?
Answer: Inactive

Question: Which “SK4 K+ channel modulating activity” value does the source give for `Cc1ccc2c(c1)n(C)c(=O)n2C` [BA2OC1c, 1,3,5-trimethyl-1,3-dihydro-2H-benzo[d]imidazol-2-one] here?
Answer: Inactive

Question: For `CCCCCCn1c(=O)[nH]c2ccccc21` [BA5B, 1-hexyl-1,3-dihydro-2H-benzo[d]imidazol-2-one], which “SK4 K+ channel modulating activity” value is on record?
Answer: inhibition; also recorded: Inhibitor

Question: How did the “SK4 K+ channel modulating activity” value turn out when `CCCCCn1c(=O)n(CCCCC)c2cc(F)ccc21` [BA63, 5-fluoro-1,3-dipentyl-1,3-dihydro-2H-benzo[d]imidazol-2-one] was run?
Answer: Inactive

Question: For `CCCCCCCn1c(=O)n(CCCCCCC)c2cc(C)ccc21` [BA29, 1,3-diheptyl-5-methyl-1,3-dihydro-2H-benzo[d]imidazol-2-one], which “SK4 K+ channel modulating activity” value is on record?
Answer: Inactive

Question: For `CCCCCCCn1c(=O)n(CCCCCCC)c2cc(C)c(C)cc21` [BA56, 1,3-diheptyl-5,6-dimethyl-1,3-dihydro-2H-benzo[d]imidazol-2-one], which “SK4 K+ channel modulating activity” value is on record?
Answer: Inactive

Question: For `Cc1ccc2[nH]c(=O)[nH]c2c1` [BA20, 5-methyl-1,3-dihydro-2H-benzo[d]imidazol-2-one], which “SK4 K+ channel modulating activity” value is on record?
Answer: Inactive
